Details of data set [1]: method as in PMID 24055064. Particulars: source not stated; cited from earlier work.
The test system of data set [2] is blood-brain barrier. Put plainly: Brain-to-blood transport after intracerebroventricular injection. It counts as in vivo, ICR-CD-1 mice. The following applies: mice, ICV injection of 1 μl of 4 mg/ml dose solution. Here is the method: (§1) To evaluate the efflux of spilanthol out of the brain, an in vivo method previously described was used. Briefly, after anesthetizing the ICR-CD-1 mice using a 40 % (w/V) urethane solution (3 g/kg), the skin of the skull was removed. Thereafter, a hole was made into the lateral ventricle using a 22 G needle marked with tape at 2 mm at the following coordinates: 1 mm lateral and 0.34 mm posterior to the bregma. 1 μl of the 4 mg/ml spilanthol dose solution as used for the blood-to-brain influx experiment was injected intracerebroventriculary (ICV) using a syringe pump (KDS100, KR analytical, Cheshire, UK) at a speed of 360 μl/h for 10 s. […] Prior to decapitation, blood was collected from the abdominal aorta. Serum was obtained by centrifuging the blood at 10 000 g during 15 min at 21 °C and brains were collected. The efflux brain half-life (t1/2,brain) (min) was calculated from the linear regression of the natural logarithm of the spilanthol concentration in brain (ng/g) versus time as follows: t1/2,brain = ln(2)/kout, where kout (min^−1) is defined as the efflux rate constant calculated as the negative value of the slope of the linear regression, applying first order kinetics.

Assay in data set [3]: as above
The following applies: female, ICR-CD-1, mouse, icv or intrathecal, 4 μg per mouse; mice, ICV injection, ln(2)/kout; read-out: efflux brain half-life t1/2,brain. It counts as in vivo, ICR-CD-1 mice. Here is the method:
as §1

Data set [4] can be described thus: Pharmacokinetic oral gavage experiment in rats (serum spilanthol, one compartmental model). It counts as in vivo, Wistar rats. The following applies: for half-life: 1.5 ml of 0.73 mg spilanthol/g dose solution, read-out: elimination half-life (converted). Here is the method:
The Wistar rats were bred in Bharat Serum and Vaccines pvt. Ltd, Thane, India (registration number 103/99/CPCSEA) and kept for the experiments at C. U. Shah College of Pharmacy, SNDT Women’s University, Santacruz, Mumbai, India (registration number 39/99/CPCSEA). The half of the rats used in the experiment were female rats and the other half male rats. Rats of 7-8 weeks old, weighing 220 g, and fasted overnight were used for the experiment.
The pharmacokinetic oral gavage experiment was carried out at C. U. Shah College of Pharmacy, SNDT Women’s University, Santacruz, Mumbai, India. A spilanthol dose solution was prepared with the Spilanthes acmella (L.) L. extract (A.Vogel). 1.5 ml of a spilanthol dose solution of 0.73 mg spilanthol/g dose solution in 10:20:30:40 (w/w/w/w) ethanol:PG:vitamin E-TPGS:PEG400 was administered to the rats using a gavage needle made up of stainless steel (length 3 inches and 2.5 mm internal diameter). A blank dose solution was used as well, containing ethanol, PG, vitamin E-TPGS and PEG without spilanthol. For each dose solution, six rats were used of which three were females and three males. Blood was collected (1.5 ml) from the retro orbital vein at specified time points i.e. 1, 2, 3, 4, 6, and 8 h after oral administration of the dose solution. The collected blood samples were centrifuged using a Remi R-24 centrifuge. At the end of the study, the animals were sacrificed by CO2 inhalation. All samples were immediately frozen at -80 °C until bio-analysis. The elimination rate constant was calculated using a one compartmental model using GraphPad software (La Jolla, USA), using the following equation: Ct=C0×e^−ke×t , in which t is time (h), C0 the concentration of spilanthol at time t = 0 (ng/ml), C(t) the concentration of spilanthol at time t and ke the elimination rate constant (h^−1). The elimination half-life (h) is computed as ln(2)/ke.
60 μl of the serum samples, 60 μl of 4 % (V/V) aqueous H3PO4 solution and 30 μl of the IS solution were transferred into a 0.5 ml (LoBind Eppendorf) tube and vortexed. Interfering compounds were removed by solid phase extraction using a positive pressure-96 processor (Waters). […] After the loading step, the HLB Oasis® μelution plate was washed using 200 μl of 5 % MeOH in H2O followed by 200 μl of 20 % MeOH in H2O. Spilanthol was eluted using two times 25 μl ACN. To the eluate, 25 μl of a 80:20 (V/V) H2O:MeOH solution was added and analysed with a UPLC-MS^2 method, as further described.

In data set [5] the test system is blood-brain barrier. Put plainly: Blood-to-brain transport, in vivo multiple time regression (MTR) analysis. The following applies: mice.
Protocol: Female, Institute for Cancer Research, Caesarean Derived-1 (ICR-CD-1) mice (Harlan Laboratories, Venray, Netherlands) of age 7–10 weeks and weighing 29–32 g, were used during the BBB transport experiments.
An in vivo multiple time regression (MTR) analysis was performed to investigate if spilanthol was able to cross the BBB. A dose solution of spilanthol was prepared using the Spilanthes acmella (L.) L. extract (Robertet) with a final concentration of 4 mg/ml spilanthol dissolved in 7.0 % ethanol, 2.5 % dimethylacetamide, 0.6 % tween 80 (all w/w) diluted in lactated Ringer’s solution containing 1 % BSA. The ICR-CD-1 mice were anesthetized by intraperitoneal injection with a 40 % (w/V) urethane solution (3 g/kg) and the jugular internalis vein and carotid artery were isolated, 20 μl of the spilanthol dose solution was injected into the jugular vein. Blood was obtained from the carotid artery at regular time points after injection (1, 3, 5, 10, 12.5 and 15 min, with start and end in duplicate), and the mice were immediately thereafter decapitated. After sacrificing the mice, the brains were collected. The collected blood from the carotid artery was centrifuged at 10 000 g for 15 min at 21 °C, resulting in serum. […]
The nature of data set [6]: Serum elimination kinetics in the mice MTR model after intravenous injection. It is filed as in vivo, ICR-CD-1 mice.

What is called LogP is the decadic logarithm of the partition coefficient of the neutral form, usually between octanol and water. Take `C/C=C/C=C\CC/C=C/C(=O)NCC(C)C` [spilanthol, deca-2E,6Z,8E-trienoic acid isobutylamide]: the LogP in data set [1] was 3.39. For the same compound, in the data set with blood-brain barrier [2], the “efflux transfer constant kout” value is 0.11 min⁻¹. Further, the half-life in data set [3] was 6.4 min; in data set [4] (both sexes, Wistar, rat, serum, po, oral gavage (discussion, in brackets)), 63 min; in data set [4] (both sexes, Wistar, rat, serum, po, oral gavage, ln(2)/ke), 67.8 min; in data set [6] (female, ICR-CD-1, iv, 80 μg per mouse, mouse serum, i.v.), 3.16 min. Also, the k el in data set [4] (both sexes, Wistar, rat, serum, po, 0.73 mg, oral gavage of 1.5 ml of 0.73 mg spilanthol/g dose solution (A. Vogel extract), one compartmental model, read-out: elimination rate constant ke (converted)) was 0.000167 s⁻¹; in data set [6] (female, ICR-CD-1, iv, 80 μg per mouse, mouse serum, i.v., one compartmental model, read-out: elimination rate constant (converted)) it was 0.00367 s⁻¹. For the same compound, in data set [4] (rat serum, oral gavage of 1.5 ml of 0.73 mg spilanthol/g dose solution (A. Vogel extract), one compartmental model), the “elimination rate constant ke” value was found to be 0.61 h⁻¹. Also, the “toxicity during the experiment” value in the data set on blood-brain barrier [5] (i.v. spilanthol dose solution with ethanol, dimethylacetamide, tween 80) was “no toxicity was observed”. Also, the “exposure time at which brain/serum ratio curve reached a plateau-phase” value in the data set with blood-brain barrier [5] (i.v., MTR) is “about 10 min”. Further, the “concentration of spilanthol at time zero in serum” value in data set [6] (mice, i.v. 20 μl of 4 mg/ml, one compartmental model) was 3050 ng/mL.

The record behind these values is article PMC4907212, “Mucosal and blood-brain barrier transport kinetics of the plant N-alkylamide spilanthol using in vitro and in vivo models” (BMC Complementary and Alternative Medicine, 2016).
